Measurements published in patent US20140369979A1, “VECTOR SIMULTANEOUSLY EXPRESSING DODECAMERIC TRAIL AND HSV-TK SUICIDE GENES, AND ANTICANCER STEM CELL THERAPEUTIC AGENT USING SAME” (POSTECH ACADEMY-INDUSTRY FOUNDATION, priority 2012, published 2014).

How the values were obtained:
MSC/dTRAIL-TK = test: Survival rate of MSC/dTRAIL-TK after GCV treatment (MTS method); format: cell-based, rat; settings: 100 μM GCV, one week after treatment
Description: In order to examine the suicide induction effect of MSC/dTRAIL-TK by GCV treatment, cells were treated with 10, 30, and 100 μM of GCV. From 1 day after GCV treatment, survival rate of MSC/dTRAIL-TK was examined by an MTS method every other day.

[1] = system: TRAIL expression by MSC/dTRAIL-TK; test: TRAIL expression of MSC/dTRAIL-TK after GCV treatment (ELISA of culture broth); format: cell-based, rat; settings: GCV 10, 30, 100 μM, culture broth every 24 hours
Description: Next, in order to examine whether TRAIL expression is reduced by MSC/dTRAIL-TK apoptosis, GCV was treated at the same concentrations, and the culture broth was collected every 24 hours to examine TRAIL expression by ELISA (enzyme-linked immunosorbent assay).

Nc1nc(O)c2ncn(COC(CO)CO)c2n1 [GCV, ganciclovir]
survival rate of MSC/dTRAIL-TK (MSC/dTRAIL-TK): almost all cells were eliminated
TRAIL expression [1]: TRAIL expression was reduced
